Data set [1] is classed as in vivo, human. The following applies: for AUC (weight and dose normalized) / TAC V/F: median [IQR]; for CL/F: human, whole blood, oral.
Data set [2] can be described thus: Reference pharmacokinetics of CsA and TAC in nonHIV transplant patients. It counts as in vivo, human. The note with it: nonHIV tx; average for both PI time periods.
The conditions of data set [3]: nonHIV tx, cited from earlier work.
The conditions of data set [4]: HIV-1 infected volunteers; concomitant use of EFV or NVP; cited from earlier work.
The conditions of data set [5]: HIV infected subjects compared to healthy volunteers; cited from earlier work.
The mark [6] stands for this setting: co-medication EFV, wk 28, 52, 104.
[7] abbreviates: co-medication NVP, wk 28, 52, 104.

Each structure is given as a SMILES string. Where two headings read alike, the source gives them in different places. Marks after values point to notes of the source that are not given here.

Results on three molecules are retold here after article PMC4018225 (Biopharmaceutics & drug disposition, 2013).

On to `C=CC[C@@H]1/C=C(\C)C[C@H](C)C[C@H](OC)[C@H]2O[C@@](O)(C(=O)C(=O)N3CCCC[C@H]3C(=O)O[C@H](/C(C)=C/[C@@H]3CC[C@@H](O)[C@H](OC)C3)[C@H](C)[C@@H](O)CC1=O)[C@H](C)C[C@@H]2OC` [TAC, tacrolimus], for which the “AUC (weight and dose normalized)” value in data set [1] (+EFV, wks 2–12) is 2170 [936–3261] ng*hr/mL/mg/kg; in data set [1] (+EFV, wks 28–104) it was 1911 [1423–3071] ng*hr/mL/mg/kg; in data set [1] (+NVP, wks 2–12), 3644 [3115–5157] ng*hr/mL/mg/kg; in data set [1] (+NVP, wks 28–104), 4220 [2703–6229] ng*hr/mL/mg/kg; in data set [1] (+PI, wks 2–12), 24996 [18205–41601] ng*hr/mL/mg/kg; in data set [1] (+PI, wks 28–104), 34653 [17208–42250] ng*hr/mL/mg/kg. Also, the “AUC (weight and dose normalized)” value in data set [3] (wks 2–12) and in data set [3] (wks 28–104) was 2000 to 5000 ng·h/mL/mg/kg in each case. Besides, the “TAC CL/F Ratio to PI” value was 18.1 in data set [1] (setting [6]); 11.5 in data set [1] (co-medication EFV, wks 2–12); 8.72 in data set [1] (setting [7]); 6.85 in data set [1] (co-medication NVP, wks 2–12); 1 in data set [1] (co-medication PI, wk 28, 52); 1 in data set [1] (co-medication PI, wks 2–12). Moreover, the “TAC CL/F Ratio to PI” value in data set [2] was “(10.1) ^*”. Also, the “TAC CL/V” value amounted to 0.068 h⁻¹ in data set [1] (setting [6]); 0.074 h⁻¹ in data set [1] (co-medication EFV, wks 2–12); 0.031 h⁻¹ in data set [1] (setting [7]); 0.056 h⁻¹ in data set [1] (co-medication NVP, wks 2–12); 0.029 h⁻¹ in data set [1] (co-medication PI, wk 28, 52); 0.043 h⁻¹ in data set [1] (co-medication PI, wks 2–12). The “TAC CL/V” value in data set [3] is 0.058 h⁻¹. Moreover, the “TAC CL/V Ratio to PI” value in data set [1] (setting [6]) is 2.33; in data set [1] (co-medication EFV, wks 2–12), 1.72; in data set [1] (setting [7]), 1.07; in data set [1] (co-medication NVP, wks 2–12), 1.31; in data set [1] (co-medication PI, wk 28, 52), 1; in data set [1] (co-medication PI, wks 2–12) it was 1. In addition, the “TAC CL/V Ratio to PI” value in data set [2] is recorded as “(1.6) ^*”. In addition, the “TAC V/F Ratio to PI” value in data set [1] (setting [6]) is listed as 7.78; in data set [1] (co-medication EFV, wks 2–12) it was 6.66; in data set [1] (setting [7]), 8.17; in data set [1] (co-medication NVP, wks 2–12) it was 5.20; in data set [1] (co-medication PI, wk 28, 52), 1; in data set [1] (co-medication PI, wks 2–12), 1. The “TAC V/F Ratio to PI” value in data set [2] was “(6.2) ^*”. The “TAC V/F” value is 7.70 [6.22–10.70] L/kg in data set [1] (setting [6]); 6.26 [5.42–10.91] L/kg in data set [1] (co-medication EFV, wks 2–12); 8.09 [3.46–15.14] L/kg in data set [1] (setting [7]); 4.89 [2.74–6.16] L/kg in data set [1] (co-medication NVP, wks 2–12); 0.99 [0.31–1.19] L/kg in data set [1] (co-medication PI, wk 28, 52); 0.94 [0.64–1.29] L/kg in data set [1] (co-medication PI, wks 2–12). The “TAC V/F” value in data set [3] is 6 L/kg. In addition, the CL/F in data set [1] (0.003 mg/kg) was 0.483 mL/min/kg; in data set [1] (0.007 mg/kg), 0.667 mL/min/kg; in data set [1] (0.046 mg/kg), 8.77 mL/min/kg; in data set [1] (0.058 mg/kg), 7.68 mL/min/kg. Further, the “TAC apparent volume of distribution ratio, PI compared to EFV” value in data set [1] (in vivo) was 0.15. For the same molecule, the “TAC apparent volume of distribution ratio, PI compared to NVP” value in data set [1] (in vivo) is reported as 0.19. Also, the “increase in drug exposure on concomitant administration with PIs” value in data set [1] (in vivo) is recorded as 2–50 fold. The “increase in exposure (AUC/dose) in the presence of PIs relative to NNRTIs” value in data set [1] (in vivo) is “more than 10 fold”. For the same molecule, the “TAC CL/F ratio, PI compared to EFV” value in data set [1] (weeks 2–12) was 0.09. In data set [1] (weeks 2–12), the “TAC CL/F ratio, PI compared to NVP” value is reported as 0.15. Besides, the “TAC CL/F” value in data set [3] is 5.83 mL/min/kg.
Turning to `Cc1cccc(C)c1OCC(=O)N[C@@H](Cc1ccccc1)[C@@H](O)C[C@H](Cc1ccccc1)NC(=O)[C@H](C(C)C)N1CCCNC1=O` [lopinavir], the “increase in apparent oral clearance” value in data set [4] is 39%.
In the case of `Cc1ncc2n1-c1ccc(Cl)cc1C(c1ccccc1F)=NC2` [midazolam], in data set [5], the decrease in clearance was ~ 50%.

A word on the CL/F: it is clearance divided by bioavailability, as obtained after extravascular dosing.
